Key:
[1] = molecular target: T1, urease (Canavalia ensiformis, UniProt P07374); test: colorimetric urease assay (phenol red), Dixon plot; IC50 […]; type: biochemical
T1 construct: Type III powder, urease from C. ensiformis (Merck)

[2] = molecular target: T1, urease; test: colorimetric urease assay (phenol red), dose-response; type: biochemical

T1 sequence (P07374 whole entry, looked up): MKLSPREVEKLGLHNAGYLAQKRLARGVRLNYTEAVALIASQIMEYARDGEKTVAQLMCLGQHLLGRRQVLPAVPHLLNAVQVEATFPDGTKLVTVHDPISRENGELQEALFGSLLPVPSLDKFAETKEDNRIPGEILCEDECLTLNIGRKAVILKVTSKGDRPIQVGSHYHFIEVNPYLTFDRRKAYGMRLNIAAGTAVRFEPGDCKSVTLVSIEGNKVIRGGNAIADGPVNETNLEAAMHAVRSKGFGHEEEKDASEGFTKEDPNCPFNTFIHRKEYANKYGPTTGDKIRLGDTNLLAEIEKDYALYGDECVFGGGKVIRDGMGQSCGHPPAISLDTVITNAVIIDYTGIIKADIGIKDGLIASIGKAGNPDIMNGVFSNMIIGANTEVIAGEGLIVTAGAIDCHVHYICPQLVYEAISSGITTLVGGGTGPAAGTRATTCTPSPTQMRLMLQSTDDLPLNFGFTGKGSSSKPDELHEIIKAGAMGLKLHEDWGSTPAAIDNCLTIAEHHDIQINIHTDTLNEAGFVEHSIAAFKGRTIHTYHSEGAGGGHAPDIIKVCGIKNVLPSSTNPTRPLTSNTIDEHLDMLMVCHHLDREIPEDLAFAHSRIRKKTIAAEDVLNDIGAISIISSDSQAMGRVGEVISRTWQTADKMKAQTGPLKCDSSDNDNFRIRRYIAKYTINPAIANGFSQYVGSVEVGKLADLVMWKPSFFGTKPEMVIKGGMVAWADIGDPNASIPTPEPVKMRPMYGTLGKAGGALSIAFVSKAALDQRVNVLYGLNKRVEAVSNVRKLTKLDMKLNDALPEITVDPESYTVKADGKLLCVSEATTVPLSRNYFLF

SMILES | Ki [1] [mM] | IC50 [2] [mM]
NC(=O)CS [2-MA, 2-mercaptoacetamide] | 2.95 | 
CC(=O)NO [AHA, acetohydroxamic acid] |  | 4.8
